Holding throughout (format): biochemical
Experiment [1] deals with T1, METTL16 (Homo sapiens, UniProt Q86W50).
T1 sequence (Q86W50 1-562): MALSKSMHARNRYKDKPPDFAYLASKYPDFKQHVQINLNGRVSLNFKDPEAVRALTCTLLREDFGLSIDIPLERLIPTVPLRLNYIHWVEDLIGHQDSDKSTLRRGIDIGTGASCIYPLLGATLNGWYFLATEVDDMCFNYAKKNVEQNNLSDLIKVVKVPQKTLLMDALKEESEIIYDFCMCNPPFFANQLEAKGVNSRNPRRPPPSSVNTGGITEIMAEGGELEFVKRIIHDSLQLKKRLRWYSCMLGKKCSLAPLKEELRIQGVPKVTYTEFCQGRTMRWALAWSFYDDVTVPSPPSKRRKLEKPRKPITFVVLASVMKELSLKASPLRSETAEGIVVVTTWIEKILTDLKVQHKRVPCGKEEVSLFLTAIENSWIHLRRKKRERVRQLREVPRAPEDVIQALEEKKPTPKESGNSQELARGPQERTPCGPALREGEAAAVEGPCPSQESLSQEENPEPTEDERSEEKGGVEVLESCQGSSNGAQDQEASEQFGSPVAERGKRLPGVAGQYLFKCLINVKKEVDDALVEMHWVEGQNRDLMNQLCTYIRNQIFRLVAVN
Description: METTL16 assay (3H-SAM flashplate scintillation). To be noted: METTL16 100 nM, RNA 50 nM, 3H-SAM 200 nM, SAM 800 nM, 20 min. The protocol:
(§1) Assays were performed in a 25 μl-volume in 384-well V-bottom polypropylene microplates (Greiner Bio-One, cat. No. 781280) at ambient temperature. Optimized 1× assay buffer was 20 mM HEPES pH 7.5, 50 mM KCl, 1 mM DTT, 0.01% Tween, 0.01% BSG, 0.004 U/μl RNAseOUT (cat. No. 10777019, ThermoFisher Scientific, Waltham, Mass.). For compound screening METTL16 (final concentration, f.c.=100 nM) was added using a Multidrop Combi (ThermoFisher Scientific, Waltham, Mass.) and preincubated for 5 min. Reactions were started by adding 3′ biotinylated RNA ([…]-biotin) (f.c.=50 nM), 3H-SAM (f.c.=200 nM) and non-radiolabeled SAM (f.c.=800 nM) substrates. Reactions proceeded for 20 minutes and were quenched with excess non-radioactive SAM (f.c.=100 μM). The reactions were then transferred to streptavidin-coated flashplates and incubated for 2 hours at 25° C. Following two washing cycles with 0.1% Tween-20, the plates were sealed and read on a TopCount (PerkinElmer, Waltham, Mass.) plate-based scintillation counter. For determination of kinetic parameters, reaction times were optimized so that measurements were taken during the initial velocity phase of the reaction.

The target in experiment [2] is METTL3/METTL14 (Homo sapiens, UniProt Q86U44). Description: METTL3-14 standard enzyme assay (3H-SAM flashplate scintillation). To be noted: METTL3/METTL14 2.5 nM, RNA 100 nM, 3H-SAM 100 nM, 30 min. In short, it runs like this: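 METTL3/METTL14 (2.5 nM final) preincubated 5 min with compound in 20 mM HEPES pH 7.5, 50 mM KCl, 250 μM MgCl2, 1 mM DTT, ambient temperature; started with 100 nM 3′-biotinylated RNA (UCUGGACUAAA) and 100 nM 3H-SAM. After 30 min, quenched with 15 μM cold SAM; methylated RNA captured on streptavidin flashplates and counted by scintillation.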

Experiment [3] concerns the target PRMT5-MEP50 (Homo sapiens, UniProt O14744). Description: PRMT5 assay (3H-SAM flashplate scintillation). Particulars: PRMT5-MEP50 2.5 nM, histone H4 peptide 100 nM, 3H-SAM 250 nM, 60 min. In short, it runs like this: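 PRMT5-MEP50 (2.5 nM final) preincubated 5 min with compound, then reacted 60 min at ambient temperature with 100 nM biotinylated N-acetyl histone H4 peptide and 250 nM 3H-SAM in 20 mM Tris-HCl pH 8.0, 1 mM DTT, 0.01% Tween. Quenched with 15 μM cold SAM; methylated peptide captured on streptavidin flashplates, scintillation counted.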

The target in experiment [4] is METTL1/WDR4 (Homo sapiens, UniProt Q9UBP6). Briefly: METTL1 assay (3H-SAM flashplate scintillation). Particulars: METTL1/WDR4 6.25 nM, RNA 25 nM, 3H-SAM 60 nM, 20 min; read-out: METTL1 IC50. The protocol:
as §1, with “KCl, 250 μM MgCl2,” for “KCl,”, “METTL1/WDR4” for “METTL16”, “f.c.=6.25” for “f.c.=100”, “(f.c.=25” for “(f.c.=50 nM), 3H-SAM (f.c.=200”, “3H-SAM (f.c.=60” for “non-radiolabeled SAM (f.c.=800”, “(f.c.=15” for “(f.c.=100”

The values below come from patent US20220372040A1, “METTL3 MODULATORS” (Accent Therapeutics, Inc., priority 2020, published 2022).

SMILES strings stand for the structures.

Broadly, the IC50 is the midpoint of a concentration-inhibition curve.

METTL1/WDR4, sequence (Q9UBP6 whole entry, species assumed): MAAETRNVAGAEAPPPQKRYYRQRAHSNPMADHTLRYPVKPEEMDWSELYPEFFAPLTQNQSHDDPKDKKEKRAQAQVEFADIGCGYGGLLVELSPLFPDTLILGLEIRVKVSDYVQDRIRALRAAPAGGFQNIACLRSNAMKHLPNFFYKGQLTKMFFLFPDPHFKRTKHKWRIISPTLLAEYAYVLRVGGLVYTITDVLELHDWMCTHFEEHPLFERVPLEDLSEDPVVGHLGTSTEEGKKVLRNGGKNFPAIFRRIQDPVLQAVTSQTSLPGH
METTL1/WDR4, sequence (P57081 whole entry partner, species assumed): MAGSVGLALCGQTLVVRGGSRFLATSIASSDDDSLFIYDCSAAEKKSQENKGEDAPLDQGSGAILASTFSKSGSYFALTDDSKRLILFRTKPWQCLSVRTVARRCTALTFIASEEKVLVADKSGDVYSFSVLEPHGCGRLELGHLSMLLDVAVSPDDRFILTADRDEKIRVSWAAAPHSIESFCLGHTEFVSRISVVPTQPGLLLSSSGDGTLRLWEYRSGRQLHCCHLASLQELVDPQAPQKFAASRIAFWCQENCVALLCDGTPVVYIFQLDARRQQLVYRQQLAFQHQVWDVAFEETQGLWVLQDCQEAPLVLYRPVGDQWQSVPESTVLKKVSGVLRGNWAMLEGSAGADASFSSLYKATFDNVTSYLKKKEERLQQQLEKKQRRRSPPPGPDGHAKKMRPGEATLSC
METTL3/METTL14, sequence (Q86U44 whole entry, species assumed): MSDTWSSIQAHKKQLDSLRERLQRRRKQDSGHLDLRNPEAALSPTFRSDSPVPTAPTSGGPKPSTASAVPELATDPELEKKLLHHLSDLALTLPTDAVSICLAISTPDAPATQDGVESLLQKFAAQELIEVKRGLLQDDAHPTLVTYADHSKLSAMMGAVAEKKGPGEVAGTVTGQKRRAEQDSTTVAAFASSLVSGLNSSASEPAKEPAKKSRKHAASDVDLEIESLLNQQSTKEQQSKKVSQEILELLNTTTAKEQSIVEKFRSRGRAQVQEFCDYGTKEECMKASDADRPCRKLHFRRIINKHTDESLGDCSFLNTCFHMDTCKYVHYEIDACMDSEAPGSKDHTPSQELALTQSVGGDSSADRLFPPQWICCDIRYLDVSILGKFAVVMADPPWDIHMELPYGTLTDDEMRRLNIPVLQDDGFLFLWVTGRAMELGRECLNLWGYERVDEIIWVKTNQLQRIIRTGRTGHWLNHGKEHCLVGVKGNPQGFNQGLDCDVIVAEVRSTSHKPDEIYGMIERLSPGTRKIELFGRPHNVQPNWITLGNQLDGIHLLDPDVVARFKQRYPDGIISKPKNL
METTL3/METTL14, sequence (Q9HCE5 whole entry partner, species assumed): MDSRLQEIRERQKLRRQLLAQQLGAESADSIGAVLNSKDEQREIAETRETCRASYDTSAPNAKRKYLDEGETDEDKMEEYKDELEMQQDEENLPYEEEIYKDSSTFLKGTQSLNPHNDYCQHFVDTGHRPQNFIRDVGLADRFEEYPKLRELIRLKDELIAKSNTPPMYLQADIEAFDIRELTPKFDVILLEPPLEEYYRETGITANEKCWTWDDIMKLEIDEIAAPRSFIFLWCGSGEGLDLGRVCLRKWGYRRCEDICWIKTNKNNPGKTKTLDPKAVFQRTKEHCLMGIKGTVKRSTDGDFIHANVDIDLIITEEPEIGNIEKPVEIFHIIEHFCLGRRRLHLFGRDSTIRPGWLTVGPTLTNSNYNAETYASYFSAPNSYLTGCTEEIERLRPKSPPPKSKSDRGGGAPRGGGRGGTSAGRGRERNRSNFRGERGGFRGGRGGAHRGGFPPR
PRMT5-MEP50, sequence (O14744 whole entry): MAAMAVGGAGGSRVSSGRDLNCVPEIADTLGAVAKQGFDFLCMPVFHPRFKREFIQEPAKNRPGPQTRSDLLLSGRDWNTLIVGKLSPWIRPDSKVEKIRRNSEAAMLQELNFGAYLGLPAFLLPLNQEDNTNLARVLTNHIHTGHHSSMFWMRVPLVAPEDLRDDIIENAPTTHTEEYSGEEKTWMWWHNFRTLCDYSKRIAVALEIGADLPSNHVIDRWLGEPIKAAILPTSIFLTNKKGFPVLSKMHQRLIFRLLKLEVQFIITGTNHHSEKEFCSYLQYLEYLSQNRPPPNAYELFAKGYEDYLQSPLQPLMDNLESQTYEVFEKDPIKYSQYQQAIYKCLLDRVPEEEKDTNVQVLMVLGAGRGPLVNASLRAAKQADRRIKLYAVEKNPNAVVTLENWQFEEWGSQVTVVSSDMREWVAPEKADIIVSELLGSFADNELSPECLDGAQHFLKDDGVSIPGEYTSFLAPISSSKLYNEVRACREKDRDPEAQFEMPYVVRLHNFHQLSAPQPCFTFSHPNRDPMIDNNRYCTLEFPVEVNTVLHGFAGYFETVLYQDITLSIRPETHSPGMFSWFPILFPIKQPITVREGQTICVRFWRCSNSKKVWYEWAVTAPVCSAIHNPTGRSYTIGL
PRMT5-MEP50, sequence (Q9BQA1 whole entry partner): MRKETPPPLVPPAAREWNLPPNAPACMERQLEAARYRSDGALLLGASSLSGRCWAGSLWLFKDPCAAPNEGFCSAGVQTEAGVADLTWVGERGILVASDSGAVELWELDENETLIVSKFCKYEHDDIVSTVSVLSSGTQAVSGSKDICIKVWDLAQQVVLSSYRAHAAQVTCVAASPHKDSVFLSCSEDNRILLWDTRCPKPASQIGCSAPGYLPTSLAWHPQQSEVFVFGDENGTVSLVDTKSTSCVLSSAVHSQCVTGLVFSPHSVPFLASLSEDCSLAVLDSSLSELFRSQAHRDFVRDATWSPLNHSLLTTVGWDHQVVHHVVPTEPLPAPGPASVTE

In the case of `CNc1ccc2ccc(OCc3cc(-n4cc(Cl)c5c(N)ncnc54)cnc3N)cc2n1` [Compound I-28], the IC50 in experiment [1] was more than 1000 nM; in experiment [2], 10 to 100 nM; in experiment [3], more than 1000 nM; in experiment [4], more than 1000 nM.
`CNc1ccc2ccc(OCc3cccc(-n4cc(CCN(C)C)c5c(N)ncnc54)c3)cc2n1` [Compound I-32]: the IC50 was more than 1000 nM in experiment [1], 100 to 1000 nM in experiment [2], more than 1000 nM in experiment [3] and more than 1000 nM in experiment [4].
`CNc1ccc2ccc(OCc3cncc(-n4cc(C5CCN(C)CC5)c5c(N)ncnc54)c3)cc2n1` [Compound I-33]: the IC50 was more than 1000 nM in experiment [1], 100 to 1000 nM in experiment [2], more than 1000 nM in experiment [3] and more than 1000 nM in experiment [4].
On to `CNc1ccc2ccc(OCc3cncc(-n4ccc5c(N)nc(N(C)C)nc54)c3)cc2n1` [Compound I-49], for which the IC50 in experiment [1], in experiment [2] and in experiment [3] was more than 1000 nM each time.
With `CNc1ccc2ccc(OCc3cncc(-n4ccc5c(N)nc(NC)nc54)c3)cc2n1` [Compound I-50], the IC50 in experiment [1], in experiment [2] and in experiment [3] was more than 1000 nM in each case.
Consider `CNc1ccc2ccc(CCc3cncc(-n4cc(Cl)c5c(N)ncnc54)c3)cc2n1` [Compound I-51], for which the IC50 in experiment [1] is more than 1000 nM; in experiment [2], 10 to 100 nM; in experiment [3], more than 1000 nM.
For `Cc1cc(N)c2ccc(OCc3cncc(-n4cc(Cl)c5c(N)ncnc54)c3)cc2n1` [Compound I-53], the IC50 is more than 1000 nM in experiment [1], 10 to 100 nM in experiment [2] and more than 1000 nM in experiment [3].
Regarding `CNc1ccc2ccc(OCc3cncc(-n4ccc5c(N)nc(N)nc54)c3)cc2n1` [Compound I-56], the IC50 is more than 1000 nM in experiment [1], 100 to 1000 nM in experiment [2] and more than 1000 nM in experiment [3].
In the case of `CNc1ccc2ccc(OCc3cncc(-n4cc(C5CCCC5)c5cncnc54)c3)cc2n1` [Compound I-57], the IC50 is more than 1000 nM in experiment [1], 100 to 1000 nM in experiment [2] and more than 1000 nM in experiment [3].
Turning to `CNc1ccc2ccc(OCc3nnc(-n4cc(Cl)c5c(N)ncnc54)s3)cc2n1` [Compound I-62], the IC50 in experiment [1] is more than 1000 nM; in experiment [2] it was more than 1000 nM; in experiment [3] it was 10 to 100 nM; in experiment [4], more than 1000 nM.
`CNc1ccc2ccc(OCc3cc(-n4cc(Cl)c5c(N)ncnc54)ncn3)cc2n1` [Compound I-64]: the IC50 in experiment [1], in experiment [2], in experiment [3] and in experiment [4] was more than 1000 nM throughout.
For `Cc1cc(N)c2ccc(OCc3cccc(-n4cc(Cl)c5c(N)ncnc54)c3)cc2n1` [Compound I-65], the IC50 was more than 1000 nM in experiment [1], 10 to 100 nM in experiment [2], more than 1000 nM in experiment [3] and more than 1000 nM in experiment [4].
As for `Cc1cc(N)c2ccc(OCc3cccc(-n4ccc5c(N)ncnc54)c3)cc2n1` [Compound I-66], the half-inhibitory concentration (IC50) in experiment [1] was more than 1000 nM; in experiment [2], 100 to 1000 nM; in experiment [3] it was more than 1000 nM; in experiment [4] it was more than 1000 nM.
Regarding `Nc1ncnc2c1c(Cl)cn2-c1cccc(COc2ccc3ccc(NCC4CC4)nc3c2)c1` [Compound I-67], the IC50 in experiment [1] is more than 1000 nM; in experiment [2], 100 to 1000 nM; in experiment [3] it was more than 1000 nM; in experiment [4] it was more than 1000 nM.
As to `CCc1ncc(-n2cc(Cl)c3c(N)ncnc32)cc1COc1ccc2ccc(NC)nc2c1` [Compound I-68], the IC50 is more than 1000 nM in experiment [1], 10 to 100 nM in experiment [2], more than 1000 nM in experiment [3] and more than 1000 nM in experiment [4].
In the case of `CNc1ccc2ccc(CN(C)c3cccc(-n4cc(Br)c5c(N)ncnc54)c3)cc2n1` [Compound I-69], the IC50 in experiment [1], in experiment [2], in experiment [3] and in experiment [4] was more than 1000 nM each time.
With `CNc1ccc2ccc(OCc3cccc(-c4c[nH]c5c(N)ncnc45)c3)cc2n1` [Compound I-71], the IC50 is more than 1000 nM in experiment [1], 10 to 100 nM in experiment [2], more than 1000 nM in experiment [3] and more than 1000 nM in experiment [4].
For `CNc1ccc2ccc(CNc3cccc(-n4cc(Br)c5c(N)ncnc54)c3)cc2n1` [Compound I-72, 7-{[(3-{4-amino-5-bromo-7H-pyrrolo[2,3-d]pyrimidin-7-yl}phenyl)amino]methyl}-N-methylquinolin-2-amine], the IC50 is more than 1000 nM in experiment [1], 100 to 1000 nM in experiment [2], more than 1000 nM in experiment [3] and more than 1000 nM in experiment [4].
As to `CNc1ccc2ccc(OCc3cccc(-n4cc(C5CC5)c5c(N)ncnc54)c3)cc2n1` [Compound I-73], the IC50 is more than 1000 nM in experiment [1], 10 to 100 nM in experiment [2], more than 1000 nM in experiment [3] and more than 1000 nM in experiment [4].
For `CNc1ccc2ccc(OCc3cc(F)cc(-n4cc(Cl)c5c(N)ncnc54)c3)cc2n1` [Compound I-76], the IC50 in experiment [1] is more than 1000 nM; in experiment [2], 10 to 100 nM; in experiment [3], more than 1000 nM; in experiment [4], more than 1000 nM.
As for `Nc1ccc2ccc(OCc3cccc(-n4cc(Cl)c5c(N)ncnc54)c3)cc2n1` [Compound I-77], the IC50 in experiment [1], in experiment [2], in experiment [3] and in experiment [4] was more than 1000 nM each time.
Regarding `CNc1ccc2ccc(OCc3cccc(-n4ccc5c(N)ncnc54)c3)cc2n1` [Compound I-78], the IC50 in experiment [1] is more than 1000 nM; in experiment [2], 10 to 100 nM; in experiment [3] it was more than 1000 nM; in experiment [4] it was more than 1000 nM.
Regarding `CNc1ccc2ccc(OCc3cccc(-n4cc(CC5CC5)c5c(N)ncnc54)c3)cc2n1` [Compound I-79], the IC50 in experiment [1] was more than 1000 nM; in experiment [2], 10 to 100 nM; in experiment [3], more than 1000 nM; in experiment [4], more than 1000 nM.
On to `CNc1ccc2ccc(OCc3cc(-n4cc(Cl)c5c(N)ncnc54)ccc3F)cc2n1` [Compound I-80], for which the IC50 in experiment [1] is more than 1000 nM; in experiment [2] it was 10 to 100 nM; in experiment [3], more than 1000 nM; in experiment [4], more than 1000 nM.
On to `CNc1ccc2ccc(OCc3cc(OC)cc(-n4cc(Cl)c5c(N)ncnc54)c3)cc2n1` [Compound I-82], for which the IC50 in experiment [1] was more than 1000 nM; in experiment [2], 100 to 1000 nM; in experiment [3], more than 1000 nM.
As to `CNc1ccc2ccc(OCc3cc(-n4cc(Cl)c5c(N)ncnc54)ccc3OC)cc2n1` [Compound I-83], the IC50 in experiment [1], in experiment [2] and in experiment [3] was more than 1000 nM in each case.
